Here are results for three molecules from publication PMC3856494, “Radiofluorination and biological evaluation of N-aryl-oxadiazolyl-propionamides as potential radioligands for PET imaging of cannabinoid CB2 receptors” (Organic and Medicinal Chemistry Letters, 2013).

Read-outs that look alike come from different tables or passages of the source.

Data set [1] is described as follows: HPLC-based logD determination. It counts as physicochemical. Particulars: RP-HPLC, reference compounds. The procedure:
The distribution coefficients of [^18F]1 and [^18F]2 were also calculated from RP-HPLC retention times in three different systems: (1) isocratic elution (60% MeCN/20 mM NH4OAc at a flow rate of 1 mL/min) and (2) gradient elution (starting from 10% MeCN/20 mM NH4OAc aq. for 10 min with a gradient to 90% MeCN/20 mM NH4OAc aq. over 30 min at a flow rate of 1 mL/min) on a Reprosil-Pur C18-AQ column (5 μm, 250 × 4.6 mm, Dr. Maisch HPLC GmbH, Ammerbruch-Entringen, Germany), and (3) isocratic elution (52.5% MeCN/20 mM NH4OAc at a flow rate of 1 mL/min) on a Prodigy 5 μm C8 (250 × 4 mm; Phenomenex Ltd, Aschaffenburg, Germany) using the reference compounds following the protocol according to the EU guideline 67/548/EWG [44].

Another data set concerns the target human CB2R (Homo sapiens, UniProt P34972). The experiment in a line: In vitro CB receptor affinity assay, displacement of [3H]CP55,940, CHO cells transfected with human CB2R. It counts as binding. As to the method: (§1) For binding experiments, Chinese hamster ovary (CHO) cell lines stably transfected with human CB1R human and CB2R were used according to the procedures previously described. […] The binding experiments were performed in triplicates, and data were given as mean values from independent experiments.
In general terms: In a radioligand displacement assay an active substance lowers the binding of a labelled ligand.

For the next data set, the target named is human CB1R (Homo sapiens, UniProt P21554). Nature of the data set: In vitro CB receptor affinity assay, displacement of [3H]CP55,940, CHO cells transfected with human CB1R. It counts as binding. As to the method:
as §1

The mark [2] stands for this setting: [3H]CP55,940 displacement, hCB1R CHO cells, read-out: Ki CB1R.

Sequence of human CB1R (P21554 whole entry): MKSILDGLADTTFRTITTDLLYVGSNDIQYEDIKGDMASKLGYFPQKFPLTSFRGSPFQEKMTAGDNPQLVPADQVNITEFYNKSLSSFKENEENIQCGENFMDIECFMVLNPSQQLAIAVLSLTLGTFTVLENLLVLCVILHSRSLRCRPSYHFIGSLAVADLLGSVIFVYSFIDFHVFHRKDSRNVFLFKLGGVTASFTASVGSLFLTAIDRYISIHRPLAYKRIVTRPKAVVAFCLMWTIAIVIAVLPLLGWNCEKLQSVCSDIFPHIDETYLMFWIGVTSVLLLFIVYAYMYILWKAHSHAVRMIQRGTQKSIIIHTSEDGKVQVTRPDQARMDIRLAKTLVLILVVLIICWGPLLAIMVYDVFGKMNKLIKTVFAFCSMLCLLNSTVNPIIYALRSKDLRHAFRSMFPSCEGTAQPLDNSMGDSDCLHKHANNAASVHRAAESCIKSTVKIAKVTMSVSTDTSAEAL
Sequence of human CB2R (P34972 whole entry): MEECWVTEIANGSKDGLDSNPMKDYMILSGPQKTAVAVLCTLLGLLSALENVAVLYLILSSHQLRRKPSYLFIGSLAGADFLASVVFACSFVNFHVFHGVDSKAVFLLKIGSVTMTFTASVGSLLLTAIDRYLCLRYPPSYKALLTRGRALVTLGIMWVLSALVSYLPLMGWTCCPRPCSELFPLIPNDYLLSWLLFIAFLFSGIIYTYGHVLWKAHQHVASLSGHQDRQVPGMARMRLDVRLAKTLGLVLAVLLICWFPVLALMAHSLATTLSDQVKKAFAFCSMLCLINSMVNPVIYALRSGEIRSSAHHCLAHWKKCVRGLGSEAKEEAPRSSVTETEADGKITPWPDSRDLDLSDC

For orientation: Ki means a dissociation constant, usually derived from enzyme kinetics or from competition with a known ligand. For `O=C(CCc1nc(-c2ccc(F)cc2Br)no1)Nc1ccc2c(c1)c1ccccc1n2CCF` [Compound 1, 3-[3-(2-Bromo-4-fluorophenyl)-1,2,4-oxadiazol-5-yl]-N-[9-(2-fluoroethyl)-9H-carbazol-3-yl]propanamide], the chromatographic logD in data set [1] (Prodigy 5 μm C8 column, isocratic 52.5% MeCN/20 mM NH4OAc, n = 3 to 6, read-out: logD Prodigy 5 μ C8 Isocratic) stood at 3.86 ± 0.33; in data set [1] (Reprosil-Pur C18-AQ column, gradient 10% to 90% MeCN/20 mM NH4OAc, n = 3 to 6, read-out: logD Reposil-Pur C18-AQ Gradient), 3.82 ± 0.1; in data set [1] (Reprosil-Pur C18-AQ column, isocratic 60% MeCN/20 mM NH4OAc, n = 3 to 6, read-out: logD Reposil-Pur C18-AQ Isocratic), 4.21 ± 0.32. Further, the inhibition constant Ki at human CB2R is 2.32 ± 2.12 nM; at human CB1R, greater than 1000 nM.
For the molecule `CCn1c2ccccc2c2cc(NC(=O)CCc3nc(-c4ccc(F)cc4Br)no3)ccc21` [Compound 2, 3-[3-(2-Bromo-4-fluorophenyl)-1,2,4-oxadiazol-5-yl]-N-(9-ethyl-9H-carbazol-3-yl)propanamide], the chromatographic logD in data set [1] (gradient 10% to 90% MeCN/20 mM NH4OAc, n = 3 to 6, read-out: logD Reposil-Pur C18-AQ Gradient) was found to be 4.35 ± 0.11; in data set [1] (isocratic 52.5% MeCN/20 mM NH4OAc, n = 3 to 6, read-out: logD Prodigy 5 μ C8 Isocratic), 4.4 ± 0.35; in data set [1] (isocratic 60% MeCN/20 mM NH4OAc, n = 3 to 6, read-out: logD Reposil-Pur C18-AQ Isocratic), 4.87 ± 0.36. Further, the Ki is 4.27 ± 3.03 nM at human CB2R and greater than 1000 nM at human CB1R (setting [2]).
The melting point is the temperature, or range, at which the solid turns liquid. As to `O=C(O)CCc1nc(-c2ccc(F)cc2Br)no1` [Compound 10, 3-(3-(2-Bromo-4-fluorophenyl)-1,2,4-oxadiazol-5-yl)propanoic acid], the melting point is 104 °C. Further, the inhibition constant (Ki) at human CB2R ([3H]CP55,940 displacement, hCB2R CHO cells, read-out: Ki CB2R) was greater than 1000 nM. The Ki on human CB1R (setting [2]) was greater than 1000 nM.
